Reference: patent publication US10912840B2, “Conjugates for treating diseases caused by PSMA expressing cells” (priority 2012, dated 2021)
Entries after “also recorded” stand apart in the source; their conditions may differ. Read-outs that look alike come from different tables or passages of the source.

Key:
[1] = type: in vivo; settings: rats, i.v., 0.33 and 0.51 μmol/kg, BIW, 2 weeks
LNCaP cells = settings: human
Method: LNCaP cells are seeded in 24-well Corning Cell-BIND plates and allowed to form nearly confluent monolayers overnight in RPMI/HIFCS. Thirty minutes prior to the addition of test compound, such as a compound described herein, spent medium is aspirated from all wells and replaced with fresh RPMI. Following one rinse with 1 mL of fresh RPMI/HIFCS, each well receives 1 mL of media containing increasing concentrations of test compound (four wells per sample). Test compound treated cells are pulsed for 2 h at 37° C., rinsed four times with 0.5 mL of media, and then chased in 1 mL of fresh media up to 70 h. Spent media is aspirated from all wells and replaced with fresh media containing 5 μCi/mL ^3H-thymidine. Following a further 4 h 37° C. incubation, cells are washed three times with 0.5 mL of PBS and then treated with 0.5 mL of ice-cold 5% trichloroacetic acid per well. After 15 min, the trichloroacetic acid is aspirated and the cells are solubilized by the addition of 0.5 mL of 0.25 N sodium hydroxide for 15 min. Four hundred and fifty microliters of each solubilized sample is transferred to scintillation vials containing 3 mL of Ecolume scintillation cocktail and then counted in a liquid scintillation counter. Final tabulated results are expressed as the percentage of ^3H-thymidine incorporation relative to untreated controls.

[2] = Gross toxicity (body weight change) in LNCaP tumor-bearing mice
Method: Four to seven week-old male nu/nu mice (Harlan Sprague Dawley. Inc., Indianapolis, Ind.) are maintained on a standard 12 h light-dark cycle and fed ad libitum with rodent diet #2918 (Harlan Teklad, Madison, Wis.) for the duration of the experiment. LNCaP cells are grown in RPMI in 10% HIFCS at 37° C. in a 5% CO2/95% air-humidified atmosphere, harvested and resuspended on ice in matrigel solution (50% RPMI+50% matrigel high concentration. BD#354248) to a final concentration of 1×10^6 cells/50 μL. Cell solution and injection needles (28 gauge) are kept on ice prior to injection and 50 μL of the cell solution injected in the subcutis of the dorsal medial area. Mice are divided into groups of five, seven, or nine, and freshly prepared test compound solutions are injected through the lateral tail vein under sterile conditions in a volume of 200 μL of phosphate-buffered saline (PBS). […] Growth of each s.c. tumor is followed by measuring the tumor three times per week during treatment and twice per week thereafter, until a volume of 1500 mm^3 is reached. Tumors are measured in two perpendicular directions using Vernier calipers, and their volumes are calculated as 0.5×L×W^2, where L=measurement of longest axis in mm and W=measurement of axis perpendicular to L in mm. As a general measure of gross toxicity, changes in body weights are determined on the same schedule as tumor volume measurements. Maximum % weight loss on any given day due to treatment is determined for each mouse. Survival of animals is monitored daily. Animals that are moribund (or unable to reach food or water) are euthanized by CO2 asphyxiation.

PSMA = target: T1, PSMA (Homo sapiens, UniProt Q04609); type: binding
T1 construct: endogenous in cells; host or cells: LNCaP cells
T1 sequence (Q04609 whole entry): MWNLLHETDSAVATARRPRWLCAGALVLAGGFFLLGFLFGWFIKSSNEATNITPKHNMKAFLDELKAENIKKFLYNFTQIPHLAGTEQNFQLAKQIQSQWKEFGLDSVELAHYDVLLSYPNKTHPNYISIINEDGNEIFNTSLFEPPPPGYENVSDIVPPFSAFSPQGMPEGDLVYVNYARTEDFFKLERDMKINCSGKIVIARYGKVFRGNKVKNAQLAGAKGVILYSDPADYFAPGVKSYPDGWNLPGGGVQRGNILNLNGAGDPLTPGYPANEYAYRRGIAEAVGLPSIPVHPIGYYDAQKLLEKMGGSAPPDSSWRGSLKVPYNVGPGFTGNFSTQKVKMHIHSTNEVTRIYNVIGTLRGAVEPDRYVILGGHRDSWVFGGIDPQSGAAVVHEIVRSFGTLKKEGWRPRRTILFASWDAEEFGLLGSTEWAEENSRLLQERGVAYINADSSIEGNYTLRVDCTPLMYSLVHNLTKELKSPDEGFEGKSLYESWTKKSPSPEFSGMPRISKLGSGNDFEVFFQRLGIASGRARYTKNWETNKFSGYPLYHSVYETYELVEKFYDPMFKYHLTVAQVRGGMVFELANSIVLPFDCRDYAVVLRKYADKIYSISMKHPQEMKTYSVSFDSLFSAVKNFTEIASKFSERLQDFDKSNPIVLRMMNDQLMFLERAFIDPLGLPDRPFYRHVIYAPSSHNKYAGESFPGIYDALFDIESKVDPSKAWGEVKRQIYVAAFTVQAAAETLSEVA
Method: PSMA relative affinity assay. LNCaP cells are seeded in 12-well Corning Cell-BIND plates and allowed to form adherent monolayers overnight in RPMI/HIFCS. Spent incubation media is replaced with RPMI supplemented with 10% HIFCS and containing a standard PSMA binding ligand, such as 100 nM of 3H-PMPA or a competing compound, such as EC0652, Re-EC652, or ^99mTc-EC0652, in the absence and presence of increasing concentrations of test compound, such as unlabeled PMPA, or a compound described herein, such as EC1169 or EC1568, a negative control intermediate lacking a PSMA binding ligand which is used as a negative control. Cells are incubated for 1 h at 37° C. and then rinsed three times with 0.5 mL of PBS. Five hundred microliters of 1% sodium dodecylsulfate in PBS are added to each well; after 5 min, cell lysates are collected, transferred to individual tubes or to vials containing 5 mL of scintillation cocktail, and then counted for radioactivity. Cells exposed to only the standard PSMA binding ligand, such as 3H-PMPA, or competing compound, such as ^99mTc-EC0652, in FFRPMI (no competitor) are designated as negative controls, whereas cells exposed to the standard PSMA binding ligand, such as 3H-PMPA, plus 1 mM unlabeled PMPA or competing compound, such as ^99mTc-EC0652 plus Re-EC0652, serve as positive controls. Disintegrations per minute (DPMs) measured in the latter samples (representing nonspecific binding of label) are subtracted from the DPM values from all samples. Relative affinities are defined as the inverse molar ratio of compound required to displace 50% of the standard PSMA binding ligand, such as ^3H-PMPA, or the competing compound, such as ^99mTc-EC0652, bound to PSMA on LNCaP cells, and the relative affinity of the standard PSMA binding ligand, such as PMPA, or the competing compound, such as Re-EC0652, for PSMA is set to 1.

[3] = tested on: PSMA-positive LNCaP human xenografts; test: Activity in vivo against PSMA+ tumor implanted in mice; settings: for tumor growth in vivo compared to untreated animals / cures (cured/tested animals; no tumor growth during entire observation period): 2 μmol/kg, LNCaP xenografts; for tumor growth in vivo compared to untreated animals: TIW for 2 weeks, beginning on day 21 post tumor implant; for cures (cured/tested animals; no tumor growth during entire observation period): TIW
Description: Survival of animals is monitored daily.

[4] = PMPA = 1.0 (normalized), in 10% serum/FDRPMI
[5] = 10 mg/kg, BIW, 2 weeks, MTD, LNCaP-tumor bearing mice

SMILES: CCCC(=O)OCN(C(=O)[C@@H](NC(=O)[C@H]1CCCCN1C)C(C)CC)[C@H](C[C@@H](OC(C)=O)c1nc(C(=O)N[C@@H](Cc2ccc(O)cc2)C[C@H](C)C(=O)NNC(=O)OCCSSC[C@H](NC(=O)[C@H](CC(=O)O)NC(=O)[C@H](CC(=O)O)NC(=O)Cc2ccc(CNC(=O)NCCCC[C@H](NC(=O)N[C@@H](CCC(=O)O)C(=O)O)C(=O)O)cc2)C(=O)O)cs1)C(C)C (stereo partly shown) [EC1169]
- hematological toxicity in red blood cells and white blood cells [1]: significantly lower than untreated controls
- IC50 (LNCaP cells): 13 nM
- gross animal toxicity (weight loss, major organ tissue degeneration) ([2]; 2 μmol/kg, TIW, 2 weeks): absence of weight loss or major organ tissue degeneration
- gross toxicity compared to docetaxel ([2]; 2 μmol/kg, TIW, 2 weeks vs docetaxel 10 mg/kg, BIW, MTD): substantially less gross animal toxicity compared to docetaxel; also recorded: less toxic than docetaxel
- gross animal toxicity (weight loss, major organ tissue degeneration) ([2]; 2 μmol/kg, TIW, 2 weeks, listed as EC169): do not exhibit gross animal toxicity

SMILES: CCCC(=O)OCN(C(=O)[C@@H](NC(=O)[C@H]1CCCCN1C)C(C)CC)[C@H](C[C@@H](OC(C)=O)c1nc(C(=O)N[C@@H](Cc2ccc(O)cc2)C[C@H](C)C(=O)NNC(=O)OCCSSC[C@H](NC(=O)[C@H](CC(=O)O)NC(=O)[C@H](CCCNC(=N)N)NC(=O)Cc2ccc(CNC(=O)NCCCC[C@H](NC(=O)N[C@@H](CCC(=O)O)C(=O)O)C(=O)O)cc2)C(=O)O)cs1)C(C)C (stereo partly shown) [EC1310]
- Relative PSMA Binding Affinity (fold over PMPA = 1.0) (PSMA): 10 fold

SMILES: CCCCCOCN(C(=O)[C@@H](NC(=O)[C@H]1CCCCN1C)[C@@H](C)CC)[C@H](C[C@@H](OC(C)=O)c1nc(C(=O)N[C@@H](Cc2ccc(O)cc2)C[C@H](C)C(=O)NNC(=O)OCCSSC[C@H](NC(=O)[C@H](CC(=O)O)NC(=O)[C@H](CC(=O)O)NC(=O)Cc2ccc(CNC(=O)NCCCC[C@H](NC(=O)N[C@@H](CCC(=O)O)C(=O)O)C(=O)O)cc2)C(=O)O)cs1)C(C)C [EC1719]
- IC50: 37.5 nM
- tumor growth in vivo compared to untreated animals [3]: efficacious in decreasing tumor growth
- cures (cured/tested animals; no tumor growth during entire observation period) ([3]; 2 weeks): 2/7
- gross animal toxicity (weight loss, major organ tissue degeneration) ([2]; 2 μmol/kg, TIW, 2 weeks): do not exhibit gross animal toxicity

SMILES: O=C(O)CC[C@H](CP(=O)(O)O)C(=O)O [PMPA, reference compound]
- relative affinity for PSMA (PSMA): 1.0 ×

SMILES: O=C(O)CC[C@H](NC(=O)N[C@@H](CCC(=O)O)C(=O)O)C(=O)O [DUPA, reference compound]
- relative affinity for PSMA (PSMA): 0.05 ×

SMILES: CCCCCCCOCN(C(=O)[C@@H](NC(=O)[C@H]1CCCCN1C)C(C)CC)[C@H](C[C@@H](OC(C)=O)c1nc(C(=O)N[C@@H](Cc2ccc(O)cc2)C[C@H](C)C(=O)NNC(=O)OCCSSC[C@H](NC(=O)[C@H](CC(=O)O)NC(=O)[C@H](CC(=O)O)NC(=O)Cc2ccc(CNC(=O)NCCCC[C@H](NC(=O)N[C@@H](CCC(=O)O)C(=O)O)C(=O)O)cc2)C(=O)O)cs1)C(C)C (stereo partly shown) [EC1721]
- IC50 (LNCaP cells): 65.6 nM
- gross animal toxicity (weight loss, major organ tissue degeneration) ([2]; 2 μmol/kg, TIW, 2 weeks): do not exhibit gross animal toxicity

SMILES: CCCCCCOCN(C(=O)[C@@H](NC(=O)[C@H]1CCCCN1C)C(C)CC)[C@H](C[C@@H](OC(C)=O)c1nc(C(=O)N[C@@H](Cc2ccc(O)cc2)C[C@H](C)C(=O)NNC(=O)OCCSSC[C@H](NC(=O)[C@H](CC(=O)O)NC(=O)[C@H](CC(=O)O)NC(=O)Cc2ccc(CNC(=O)NCCCC[C@H](NC(=O)N[C@@H](CCC(=O)O)C(=O)O)C(=O)O)cc2)C(=O)O)cs1)C(C)C (stereo partly shown) [EC1720]
- IC50 (LNCaP cells): 54.2 nM
- gross animal toxicity (weight loss, major organ tissue degeneration) ([2]; 2 μmol/kg, TIW, 2 weeks): do not exhibit gross animal toxicity

SMILES: O=C(O)CC[C@H](NC(=O)N[C@@H](CCCCNC(=O)Nc1ccc(CC(=O)N[C@@H](CC(=O)O)C(=O)N[C@@H](CC(=O)O)C(=O)N[C@@H](CS)C(=O)O)cc1)C(=O)O)C(=O)O [EC1067]
- Relative PSMA Binding Affinity (fold over PMPA = 1.0) (PSMA): 30 fold
- relative affinity for PSMA (PSMA; [4]): 30 ×

SMILES: CCCOCN(C(=O)[C@@H](NC(=O)[C@H]1CCCCN1C)[C@@H](C)CC)[C@H](C[C@@H](OC(C)=O)c1nc(C(=O)N[C@@H](Cc2ccc(O)cc2)C[C@H](C)C(=O)NNC(=O)OCCSSC[C@H](NC(=O)[C@H](CC(=O)O)NC(=O)[C@H](CC(=O)O)NC(=O)Cc2ccc(CNC(=O)NCCCC[C@H](NC(=O)N[C@@H](CCC(=O)O)C(=O)O)C(=O)O)cc2)C(=O)O)cs1)C(C)C [EC1718]
- IC50: 17.9 nM
- tumor growth in vivo compared to untreated animals [3]: efficacious in decreasing tumor growth
- cures (cured/tested animals; no tumor growth during entire observation period) ([3]; 2 weeks): 1/7
- gross animal toxicity (weight loss, major organ tissue degeneration) ([2]; 2 μmol/kg, TIW, 2 weeks): do not exhibit gross animal toxicity

SMILES: CCCC(=O)OCN(C(=O)[C@@H](NC(=O)[C@H]1CCCCN1C)C(C)CC)[C@H](C[C@@H](OC(C)=O)c1nc(C(=O)N[C@@H](Cc2ccc(O)cc2)C[C@H](C)C(=O)NNC(=O)OCCSSC[C@H](NC(=O)[C@H](Cc2ccccc2)NC(=O)[C@H](CC(=O)O)NC(=O)NCCCC[C@H](NC(C)=O)C(=O)O)C(=O)O)cs1)C(C)C (stereo partly shown) [EC1568, reference compound]
- Relative PSMA Binding Affinity (fold over PMPA = 1.0) (PSMA): 0 fold

SMILES: O=C(O)CC[C@H](NC(=O)N[C@@H](CCCCNC(=O)NCc1ccc(CC(=O)N[C@@H](CC(=O)O)C(=O)N[C@@H](CC(=O)O)C(=O)NCC(=O)O)cc1)C(=O)O)C(=O)O [EC1168]
- Relative PSMA Binding Affinity (fold over PMPA = 1.0) (PSMA): 17 fold
- relative affinity for PSMA (PSMA; [4]): 17 ×

SMILES: O=C(O)CC[C@H](NC(=O)N[C@@H](CCCCNC(=O)Nc1ccc(CC(=O)O)cc1)C(=O)O)C(=O)O [EC1080]
- Relative PSMA Binding Affinity (fold over PMPA = 1.0) (PSMA): 6 fold
- relative affinity for PSMA (PSMA; [4]): 6 ×

SMILES: CCCCOCN(C(=O)[C@@H](NC(=O)[C@H]1CCCCN1C)[C@@H](C)CC)[C@H](C[C@@H](OC(C)=O)c1nc(C(=O)N[C@@H](Cc2ccc(O)cc2)C[C@H](C)C(=O)NNC(=O)OCCSSC[C@H](NC(=O)[C@H](CC(=O)O)NC(=O)[C@H](CC(=O)O)NC(=O)Cc2ccc(CNC(=O)NCCCC[C@H](NC(=O)N[C@@H](CCC(=O)O)C(=O)O)C(=O)O)cc2)C(=O)O)cs1)C(C)C [EC1677]
- IC50: 20.9 nM
- tumor growth in vivo compared to untreated animals [3]: efficacious in decreasing tumor growth
- cures (cured/tested animals; no tumor growth during entire observation period) ([3]; 2 weeks): 4/7
- gross animal toxicity (weight loss, major organ tissue degeneration) ([2]; 2 μmol/kg, TIW, 2 weeks): do not exhibit gross animal toxicity

SMILES: CCCC(=O)OCN(C(=O)[C@@H](NC(=O)[C@H]1CCCCN1C)C(C)CC)[C@H](C[C@@H](OC(C)=O)c1nc(C(=O)N[C@@H](Cc2ccc(O)cc2)C[C@H](C)C(=O)NNC(=O)OCCSSC[C@H](NC(=O)[C@@H](CC(=O)O)NC(=O)[C@@H](CC(=O)O)NC(=O)Cc2ccc(CNC(=O)NCCCC[C@H](NC(=O)N[C@@H](CCC(=O)O)C(=O)O)C(=O)O)cc2)C(=O)O)cs1)C(C)C (stereo partly shown) [EC1308]
- Relative PSMA Binding Affinity (fold over PMPA = 1.0) (PSMA): 20 fold

SMILES: CC(=O)O[C@@]12CO[C@@H]1C[C@H](O)[C@@]1(C)C(=O)[C@H](O)C3=C(C)[C@@H](OC(=O)[C@H](O)[C@@H](NC(=O)OC(C)(C)C)c4ccccc4)C[C@@](O)([C@@H](OC(=O)c4ccccc4)[C@H]21)C3(C)C [docetaxel, reference compound]
- anti-tumor activity [3, 5]: only modest anti-tumor activity
- cures (cured/tested animals) [3, 5]: 1/4
- gross toxicity ([2]; 10 mg/kg, BIW, 2 weeks, MTD): high gross toxicity
- weight loss ([2]; 10 mg/kg, BIW, 2 weeks, MTD): 18%

SMILES: O=C(O)CC[C@H](NC(=O)N[C@@H](CCCCNC(=O)NCc1ccc(CC(=O)N[C@@H](CC(=O)O)C(=O)N[C@@H](CC(=O)O)C(=O)N[C@@H](CS)C(=O)O)cc1)C(=O)O)C(=O)O [EC1167]
- Relative PSMA Binding Affinity (fold over PMPA = 1.0) (PSMA): 11 fold
